Laboratory results reported in patent US20090306112A1, “ANTIVIRAL PROTEASE INHIBITORS” (Gilead Sciences, Inc., priority 2006, published 2009).

Biological target: T1, recombinant HIV-1 protease expressed in E. Coli (Human immunodeficiency virus type 1 group M subtype B, UniProt P04585)
T1 construct: Enzyme: recombinant HIV-1 protease expressed in E. Coli; purchased Bachem California, Inc. (Torrance, Calif.) H-9040; host or cells: E. coli
Assay: HIV-1 Protease Enzyme Assay (Ki), fluorimetric detection of hexapeptide substrate cleavage
Type: biochemical
Conditions: tight-binding competitive inhibition; 37° C., pH 5.3, final substrate concentration 40 μM, enzyme 1 to 2.5 nM
Excerpt: Biological Assays Used for the Characterization of HIV Protease Inhibitors HIV-1 Protease Enzyme Assay (Ki)
The assay is based on the fluorimetric detection of synthetic hexapeptide substrate cleavage by HIV-1 protease in a defined reaction buffer as initially described by M. V. Toth and G. R. Marshall, Int. J. Peptide Protein Res. 36, 544 (1990)
Substrate: (2-aminobenzoyl)Thr-Ile-Nle-(p-nitro)Phe-Gln-Arg
Substrate supplied by Bachem California, Inc. (Torrance, Calif.; Cat. no. H-2992)
Enzyme: recombinant HIV-1 protease expressed in E. Coli
Enzyme supplied by Bachem California, Inc. (Torrance, Calif.; Cat. no. H-9040)
Reaction buffer: • 100 mM ammonium acetate, pH 5.3 • 1 M sodium chloride • 1 mM ethylendiaminetetraacetic acid • 1 mM dithiothreitol • 10% dimethylsulfoxide
Assay Protocol for the Determination of Inhibition Constant Ki:
• 1. Prepare series of solutions containing identical amount of the enzyme (1 to 2.5 nM) and a tested inhibitor at different concentrations in the reaction buffer • 2. Transfer the solutions (190 uL each) into a white 96-well plate • 3. Preincubate for 15 min at 37° C. • 4. Solubilize the substrate in 100% dimethylsulfoxide at a concentration of 800 μM. Start the reaction by adding 10 μL of 800 μM substrate into each well (final substrate concentration of 40 μM) • 5. Measure the real-time reaction kinetics at 37° C. by using Gemini 96-well plate fluorimeter (Molecular Devices, Sunnyvale, Calif.) at λ(Ex)=330 nm and λ(Em)=420 nm • 6. Determine initial velocities of the reactions with different inhibitor concentrations and calculate Ki (in picomolar concentration units) value by using EnzFitter program (Biosoft, Cambridge, U.K.) according to an algorithm for tight-binding competitive inhibition described by Ermolieff J., Lin X., and Tang J., Biochemistry 36, 12364 (1997)

SMILES | Ki [nM]
COC(=O)NC(C(=O)NN(Cc1ccc(-c2ccccn2)cc1)C[C@H](O)[C@H](Cc1ccccc1)NC(=O)O[C@H]1C(=O)OCC1(C)C)C(C)(C)C (some centres unmarked) [Example C] | < 0.03
COC(=O)NC(C(=O)NN(Cc1ccc(-c2ccncc2)cc1)C[C@H](O)[C@H](Cc1ccc(OC)cc1)NC(=O)O[C@H]1CO[C@H]2OCC[C@H]21)C(C)(C)C (some centres unmarked) [Example Q] | < 0.03
COC(=O)NC(C(=O)NN(Cc1ccc(OCc2ccoc2)cc1)C[C@H](O)[C@H](Cc1ccc(OC)cc1)NC(=O)O[C@H]1CO[C@H]2OCC[C@H]21)C(C)(C)C (some centres unmarked) [Example V] | < 0.03
COC(=O)NC(C(=O)NN(Cc1ccc(OCc2ccncc2)cc1)C[C@H](O)[C@H](Cc1ccc(OC)cc1)NC(=O)O[C@H]1CO[C@H]2OCC[C@H]21)C(C)(C)C (some centres unmarked) [Example T] | < 0.03
CC(C)(C)C(NC(=O)OCc1cscn1)C(=O)NN(Cc1ccc(-c2ccccn2)cc1)C[C@H](O)[C@H](Cc1ccccc1)NC(=O)O[C@H]1CO[C@H]2OCC[C@H]21 (some centres unmarked) [Example M] | < 0.03
CC(C)OC(=O)NC(C(=O)NN(Cc1ccc(-c2ccccn2)cc1)C[C@H](O)[C@H](Cc1ccccc1)NC(=O)O[C@H]1CO[C@H]2OCC[C@H]21)C(C)(C)C (some centres unmarked) [Example J] | < 0.03
Cc1cccc(C)c1OCC(=O)NN(Cc1ccc(-c2ccccn2)cc1)C[C@H](O)[C@H](Cc1ccccc1)NC(=O)O[C@H]1CO[C@H]2OCC[C@H]21 [Example AN] | < 0.03
CC(C)(C)C(NC(=O)C(F)(F)F)C(=O)NN(Cc1ccc(-c2ccccn2)cc1)C[C@H](O)[C@H](Cc1ccccc1)NC(=O)O[C@H]1CO[C@H]2OCC[C@H]21 (some centres unmarked) [Example N] | < 0.03
